Laboratory results: paper PMC8160875 (Molecules, 2021)

How the values were obtained:
[1] = system: A549 cells; test: MTT cytotoxicity assay, A549; assay type: cell-based; conditions: Homo sapiens, A549 cell line, average of three determinations
Text: (§1) Four human tumor cell lines (A549, H1975, NCI-H460, and MCF-7) and human normal cell line LO2 were selected to evaluate the antiproliferative activity of all target compounds in vitro. Olmutinib was used as a positive control. Results are summarized in Table 1, where the values are the average of at least three independent experiments. […] However, the antiproliferative activities of the compounds that were substituted with the anisidine side chain performed better than the cyano group chain.

[2] = system: H1975 cells; test: MTT cytotoxicity assay, H1975; assay type: cell-based; conditions: Homo sapiens, NCI-H1975, H1975 cell line, average of three determinations
Text: as §1

[3] = system: NCI-H460 cells; test: MTT cytotoxicity assay, NCI-H460; assay type: cell-based; conditions: Homo sapiens, NCI-H460 cell line, average of three determinations
Text: as §1

[4] = system: MCF-7 cells; test: MTT cytotoxicity assay, MCF-7; assay type: cell-based; conditions: Homo sapiens, MCF7, MCF-7 cell line, average of three determinations
Text: as §1

[5] = system: LO2 cells; test: MTT cytotoxicity assay, normal cell line LO2; assay type: cell-based, human; conditions: for IC50: L02, human normal cell line LO2, MTT, average of three determinations; for Selectivity IC50(LO2)/IC50(A549): ratio IC50(LO2)/IC50(A549)
Text: as §1

[6] = target: EGFR^T790M/L858R (Homo sapiens, UniProt P00533, L858R/T790M); test: Kinase-Glo Luminescent Kinase Assay, EGFR T790M/L858R; assay type: biochemical; conditions: average of three determinations
Sequence of EGFR^T790M/L858R (P00533 25-1210 T790M/L858R): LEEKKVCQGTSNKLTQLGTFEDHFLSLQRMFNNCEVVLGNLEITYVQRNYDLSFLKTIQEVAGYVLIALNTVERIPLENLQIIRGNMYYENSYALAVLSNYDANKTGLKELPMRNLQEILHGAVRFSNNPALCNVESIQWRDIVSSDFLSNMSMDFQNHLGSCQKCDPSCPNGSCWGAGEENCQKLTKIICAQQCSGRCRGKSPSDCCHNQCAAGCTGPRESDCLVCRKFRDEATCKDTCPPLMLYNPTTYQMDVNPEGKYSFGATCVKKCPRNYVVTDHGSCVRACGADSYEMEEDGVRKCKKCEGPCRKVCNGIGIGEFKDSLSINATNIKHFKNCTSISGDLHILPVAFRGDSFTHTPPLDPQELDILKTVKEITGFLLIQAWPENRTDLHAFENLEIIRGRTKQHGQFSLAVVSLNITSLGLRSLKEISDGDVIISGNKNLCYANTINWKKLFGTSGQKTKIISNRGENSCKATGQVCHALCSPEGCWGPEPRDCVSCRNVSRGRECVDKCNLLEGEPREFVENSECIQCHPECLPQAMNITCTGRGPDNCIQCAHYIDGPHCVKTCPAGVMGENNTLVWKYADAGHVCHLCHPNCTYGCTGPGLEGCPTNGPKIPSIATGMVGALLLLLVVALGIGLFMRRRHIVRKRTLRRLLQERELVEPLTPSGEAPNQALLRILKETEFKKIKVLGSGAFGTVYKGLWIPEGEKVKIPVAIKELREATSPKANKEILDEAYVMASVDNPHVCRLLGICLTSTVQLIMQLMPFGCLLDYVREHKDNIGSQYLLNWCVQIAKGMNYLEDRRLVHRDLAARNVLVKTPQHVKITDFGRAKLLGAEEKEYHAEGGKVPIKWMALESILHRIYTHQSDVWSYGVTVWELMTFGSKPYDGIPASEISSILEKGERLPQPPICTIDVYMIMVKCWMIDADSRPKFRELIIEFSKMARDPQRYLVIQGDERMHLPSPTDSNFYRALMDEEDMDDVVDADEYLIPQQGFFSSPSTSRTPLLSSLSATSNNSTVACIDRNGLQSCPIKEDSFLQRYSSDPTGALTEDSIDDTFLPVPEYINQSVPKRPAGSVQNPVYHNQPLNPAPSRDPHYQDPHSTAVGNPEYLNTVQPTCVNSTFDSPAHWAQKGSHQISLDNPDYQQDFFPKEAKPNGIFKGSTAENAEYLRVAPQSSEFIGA

[7] = target: PI3Kα (Homo sapiens, UniProt P42336); test: Kinase-Glo Luminescent Kinase Assay, PI3Kα; assay type: biochemical; conditions: average of three determinations
Sequence of PI3Kα (P42336 whole entry): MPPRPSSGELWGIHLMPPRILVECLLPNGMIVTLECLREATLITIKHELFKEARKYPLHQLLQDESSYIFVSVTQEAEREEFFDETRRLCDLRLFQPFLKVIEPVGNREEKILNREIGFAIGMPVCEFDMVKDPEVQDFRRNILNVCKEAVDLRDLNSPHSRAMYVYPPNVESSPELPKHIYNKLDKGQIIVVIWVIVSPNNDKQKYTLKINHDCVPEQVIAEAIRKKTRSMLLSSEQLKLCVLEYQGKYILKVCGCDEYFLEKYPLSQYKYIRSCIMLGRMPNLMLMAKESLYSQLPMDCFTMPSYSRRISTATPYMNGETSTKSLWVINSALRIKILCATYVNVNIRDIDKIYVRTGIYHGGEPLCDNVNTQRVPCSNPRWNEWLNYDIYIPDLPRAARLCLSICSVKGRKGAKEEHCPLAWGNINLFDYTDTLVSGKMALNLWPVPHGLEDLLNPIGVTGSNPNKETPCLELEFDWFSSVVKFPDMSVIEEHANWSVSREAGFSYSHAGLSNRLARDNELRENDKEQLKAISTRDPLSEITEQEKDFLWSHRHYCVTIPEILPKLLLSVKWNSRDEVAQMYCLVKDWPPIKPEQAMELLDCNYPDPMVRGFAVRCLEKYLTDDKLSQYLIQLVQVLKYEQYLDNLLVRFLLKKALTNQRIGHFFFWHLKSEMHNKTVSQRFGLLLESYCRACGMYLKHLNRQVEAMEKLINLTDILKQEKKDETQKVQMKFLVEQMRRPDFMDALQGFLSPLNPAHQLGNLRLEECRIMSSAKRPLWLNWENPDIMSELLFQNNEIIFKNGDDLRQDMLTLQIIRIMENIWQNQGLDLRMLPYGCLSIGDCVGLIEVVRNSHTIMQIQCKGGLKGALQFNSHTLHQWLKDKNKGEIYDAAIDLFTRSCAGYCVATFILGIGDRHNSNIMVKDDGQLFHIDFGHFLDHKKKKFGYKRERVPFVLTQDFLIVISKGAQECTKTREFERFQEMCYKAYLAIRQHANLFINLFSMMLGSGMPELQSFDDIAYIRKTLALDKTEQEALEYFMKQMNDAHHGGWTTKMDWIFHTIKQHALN
Sequence of PI3Kα (P27986 whole entry partner): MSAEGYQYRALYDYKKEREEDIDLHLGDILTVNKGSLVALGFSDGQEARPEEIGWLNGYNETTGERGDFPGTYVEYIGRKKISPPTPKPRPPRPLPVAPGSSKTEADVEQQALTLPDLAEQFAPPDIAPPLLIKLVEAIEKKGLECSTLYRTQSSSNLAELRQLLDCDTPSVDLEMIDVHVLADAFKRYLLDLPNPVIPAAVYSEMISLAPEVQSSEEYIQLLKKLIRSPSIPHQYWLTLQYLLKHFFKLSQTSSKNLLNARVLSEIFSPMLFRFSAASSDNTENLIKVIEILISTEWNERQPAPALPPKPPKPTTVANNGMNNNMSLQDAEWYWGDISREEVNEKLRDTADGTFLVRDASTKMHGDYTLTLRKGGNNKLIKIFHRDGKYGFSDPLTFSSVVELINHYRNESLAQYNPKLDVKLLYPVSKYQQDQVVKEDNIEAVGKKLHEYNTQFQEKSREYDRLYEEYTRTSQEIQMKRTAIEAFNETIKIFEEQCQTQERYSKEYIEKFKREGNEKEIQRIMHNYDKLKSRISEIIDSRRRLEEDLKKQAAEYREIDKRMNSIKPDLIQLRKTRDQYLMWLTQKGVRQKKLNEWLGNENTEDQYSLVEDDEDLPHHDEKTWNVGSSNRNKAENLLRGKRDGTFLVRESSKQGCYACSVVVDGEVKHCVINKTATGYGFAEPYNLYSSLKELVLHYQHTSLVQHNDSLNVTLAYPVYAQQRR
Description: Compounds H7 and H10 had excellent antiproliferative activity and were further screened out for kinase inhibition testing. We evaluated compounds H7 and H10 with EGFR^T790M/L858R kinases and PI3Kα kinases.
The specific operation was carried out according to our previous research.

[8] = system: HCC827 (EGFR^dell19) cells; conditions: quoted in the introduction; read-out: IC50 against HCC827 (EGFR^dell19) cells; cited from earlier work
[9] = system: H1975 (EGFR^L858R/T790M) cells; conditions: quoted in the introduction; read-out: IC50 against H1975 (EGFR^L858R/T790M) cells; cited from earlier work
[10] = system: A549 (EGFR^WT) cells; conditions: quoted in the introduction; read-out: IC50 against A549 (EGFR^WT) cells; cited from earlier work
[11] = quoted in the introduction; cited from earlier work

Row | IC50 [6] [µM] | IC50 [7] [µM] | melting point [°C] | Compound | IC50 [1] [µM] | IC50 [2] [µM] | IC50 [3] [µM] | IC50 [4] [µM] | IC50 [5] [µM] | Selectivity IC50(LO2)/IC50(A549) [5] | Selectivity (A549 vs LO2) relative to that of olmutinib ([5]; fold of the selectivity of the lead compound olmutinib) | IC50 [8] [µM] | IC50 [9] [µM] | IC50 [10] [µM] | toxic side effects [11]
1 | – | – | 215.2 to 217.1 | CCN(CC)Cc1ccc(-c2nc(Oc3cccc(NC(=O)C=C(C)C)c3)nc(N3CCOCC3)n2)s1 [Compound H15, N-(3-((4-(5-((diethylamino)methyl)thiophen-2-yl)-6-morpholino-1,3,5-triazin-2-yl)oxy)phenyl)-3-methylbut-2-enamide] | 21.4 ± 1.58 | 19.5 ± 1.55 | 62.4 ± 2.94 | 38.5 ± 1.78 | > 100 | >4.68 | – | – | – | – | –
2 | – | – | 215.5 to 218.7 | CC(C)=CC(=O)Nc1cccc(Oc2cc(-c3cccs3)nc(Nc3cccc(C#N)c3)n2)c1 [Compound H3, N-(3-((2-((3-cyanophenyl)amino)-6-(thiophen-2-yl)pyrimidin-4-yl)oxy)phenyl)-3-methylbut-2-enamide] | 27.7 ± 1.24 | 21.9 ± 1.33 | 25.8 ± 1.38 | 35.8 ± 1.64 | > 100 | >3.61 | – | – | – | – | –
3 | – | – | 222.9 to 226.8 | C=C(F)C(=O)Nc1cccc(Oc2cc(-c3cccs3)nc(Nc3cccc(C#N)c3)n2)c1 [Compound H5, N-(3-((2-((3-cyanophenyl)amino)-6-(thiophen-2-yl)pyrimidin-4-yl)oxy)phenyl)-2-fluoroacrylamide] | > 100 | > 100 | > 100 | > 100 | > 100 | – | – | – | – | – | –
4 | – | – | 209.6 to 211.4 | CCC/C=C/C(=O)Nc1cccc(Oc2cc(-c3cccs3)nc(Nc3cccc(C#N)c3)n2)c1 [Compound H4, (E)-N-(3-((2-((3-cyanophenyl)amino)-6-(thiophen-2-yl)pyrimidin-4-yl)oxy)phenyl)hex-2-enamide] | 37.1 ± 1.19 | 25.1 ± 1.3 | 23.4 ± 1.49 | 27 ± 1.63 | > 100 | >2.70 | – | – | – | – | –
5 | – | – | 199.7 to 201.3 | CC(C)/C=C/C(=O)Nc1cccc(Oc2nc(-c3ccc(CN(C)C)s3)nc(N3CCOCC3)n2)c1 [Compound H12, (E)-N-(3-((4-(5-((dimethylamino)methyl)thiophen-2-yl)-6-morpholino-1,3,5-triazin-2-yl)oxy)phenyl)-4-methylpent-2-enamide] | 21.9 ± 1.54 | 13.6 ± 1.94 | 23.8 ± 2.05 | 64 ± 1.8 | > 100 | >4.57 | – | – | – | – | –
6 | 0.25 | 8.56 | 202.4 to 203.7 | C/C=C/C(=O)Nc1cccc(Oc2nc(-c3ccc(CN(C)C)s3)nc(N3CCOCC3)n2)c1 [Compound H10, (E)-N-(3-((4-(5-((dimethylamino)methyl)thiophen-2-yl)-6-morpholino-1,3,5-triazin-2-yl)oxy)phenyl)but-2-enamide] | 3.36 ± 1.59 | 1.16 ± 1.53 | 10.7 ± 2.02 | 13.1 ± 1.36 | > 100 | >29.76 | about 5 times | – | – | – | –
7 | – | – | 217.9 to 219.1 | COc1cccc(Nc2nc(Oc3cccc(NC(=O)/C=C/C(C)C)c3)cc(-c3cccs3)n2)c1 [Compound H8, (E)-N-(3-((2-((3-methoxyphenyl)amino)-6-(thiophen-2-yl)pyrimidin-4-yl)oxy)phenyl)-4-methylpent-2-enamide] | 19 ± 1.34 | 21.5 ± 1.21 | 24.1 ± 1.28 | 49.1 ± 2.13 | > 100 | >5.26 | – | – | – | – | –

More lines, now with the values behind:

Row | Compound | IC50 [6] [µM] | IC50 [7] [µM] | melting point [°C] | IC50 [1] [µM] | IC50 [2] [µM] | IC50 [3] [µM] | IC50 [4] [µM] | IC50 [5] [µM] | Selectivity IC50(LO2)/IC50(A549) [5] | Selectivity (A549 vs LO2) relative to that of olmutinib ([5]; fold of the selectivity of the lead compound olmutinib) | IC50 [8] [µM] | IC50 [9] [µM] | IC50 [10] [µM] | toxic side effects [11]
8 | C/C=C/C(=O)Nc1cccc(Oc2cc(-c3cccs3)nc(Nc3cccc(OC)c3)n2)c1 [Compound H7, (E)-N-(3-((2-((3-methoxyphenyl)amino)-6-(thiophen-2-yl)pyrimidin-4-yl)oxy)phenyl)but-2-enamide] | 0.63 | > 10 | 231.7 to 234.3 | 4.37 ± 0.5 | 4.59 ± 0.46 | 13.5 ± 0.52 | 19.2 ± 1.12 | > 100 | >22.88 | – | – | – | – | –
9 | C=C(C)C(=O)Nc1cccc(Oc2nc(-c3ccc(CN(CC)CC)s3)nc(N3CCOCC3)n2)c1 [Compound H13, N-(3-((4-(5-((diethylamino)methyl)thiophen-2-yl)-6-morpholino-1,3,5-triazin-2-yl)oxy)phenyl)methacrylamide] | – | – | – | 23.4 ± 1.89 | 21.5 ± 1.21 | 54.5 ± 2.86 | 32.5 ± 1.73 | > 100 | – | – | – | – | – | –
10 | CC(C)/C=C/C(=O)Nc1cccc(Oc2cc(-c3cccs3)nc(Nc3cccc(C#N)c3)n2)c1 [Compound H6, (E)-N-(3-((2-((3-cyanophenyl)amino)-6-(thiophen-2-yl)pyrimidin-4-yl)oxy)phenyl)-4-methylpent-2-enamide] | – | – | 223.1 to 225.4 | 15.6 ± 0.81 | 11.9 ± 1.11 | 18.1 ± 0.71 | 17.7 ± 1.01 | > 100 | >6.43 | – | – | – | – | –
11 | C/C=C/C(=O)Nc1cccc(Oc2nc(-c3ccc(CN(CC)CC)s3)nc(N3CCOCC3)n2)c1 [Compound H14, (E)-N-(3-((4-(5-((diethylamino)methyl)thiophen-2-yl)-6-morpholino-1,3,5-triazin-2-yl)oxy)phenyl)but-2-enamide] | – | – | – | 20.6 ± 2.3 | 17.8 ± 1.34 | 46.2 ± 1.43 | 41.6 ± 1.61 | > 100 | – | – | – | – | – | –
12 | C=CC(=O)Nc1cccc(Oc2cc(-c3cccs3)nc(Nc3cccc(C#N)c3)n2)c1 [Compound H1, N-(3-((2-((3-cyanophenyl)amino)-6-(thiophen-2-yl)pyrimidin-4-yl)oxy)phenyl)acrylamide] | – | – | – | 4.43 ± 0.5 | 9.64 ± 1.01 | 13.1 ± 1.17 | 19 ± 1.71 | > 100 | >22.57 | – | – | – | – | –
13 | C/C=C/C(=O)Nc1cccc(Oc2cc(-c3cccs3)nc(Nc3cccc(C#N)c3)n2)c1 [Compound H2, (E)-N-(3-((2-((3-cyanophenyl)amino)-6-(thiophen-2-yl)pyrimidin-4-yl)oxy)phenyl)but-2-enamide] | – | – | 201.2 to 205.9 | 10.5 ± 1.17 | 12.5 ± 1.09 | 16.4 ± 0.98 | 14.6 ± 1.19 | 87.9 ± 1.67 | 8.38 | – | – | – | – | –
14 | CC(C)=CC(=O)Nc1cccc(Oc2nc(-c3ccc(CN(C)C)s3)nc(N3CCOCC3)n2)c1 [Compound H11, N-(3-((4-(5-((dimethylamino)methyl)thiophen-2-yl)-6-morpholino-1,3,5-triazin-2-yl)oxy)phenyl)-3-methylbut-2-enamide] | – | – | – | 13.5 ± 1.13 | 5.57 ± 1.53 | 19.7 ± 1.16 | 25.8 ± 1.31 | > 100 | >7.39 | – | – | – | – | –
15 | C=CC(=O)Nc1cccc(Oc2nc(Nc3ccc(N4CCN(C)CC4)cc3)nc3ccsc23)c1 [Olmutinib, olmutinib, reference compound] | – | > 10 | – | 4.29 ± 0.21 | 0.52 ± 0.1 | 5.29 ± 0.59 | 26.9 ± 0.93 | 25.8 ± 1.31 | – | – | 0.0092 | 0.01 | 0.225 | palmoplantar keratoderma and diarrhea
16 | C=CC(=O)Nc1cccc(Oc2nc(-c3ccc(CN(C)C)s3)nc(N3CCOCC3)n2)c1 [Compound H9, N-(3-((4-(5-((dimethylamino)methyl)thiophen-2-yl)-6-morpholino-1,3,5-triazin-2-yl)oxy)phenyl)acrylamide] | – | – | – | 23.5 ± 1.43 | 12.8 ± 1.25 | 28.2 ± 1.78 | 53.9 ± 1.73 | > 100 | – | – | – | – | – | –
17 | CCN(CC)Cc1ccc(-c2nc(Oc3cccc(NC(=O)/C=C/C(C)C)c3)nc(N3CCOCC3)n2)s1 [Compound H16, (E)-N-(3-((4-(5-((diethylamino)methyl)thiophen-2-yl)-6-morpholino-1,3,5-triazin-2-yl)oxy)phenyl)-4-methylpent-2-enamide] | – | – | – | 36.1 ± 1.61 | 15.6 ± 2.55 | 30.3 ± 1.68 | 51.8 ± 1.27 | > 100 | >2.77 | – | – | – | – | –
